Reference: the PolyMetriX glass transition set

Row | SMILES | glass transition temperature [°C]
1 | */C(=N\c1ccccc1)c1ccc(-c2ccc(*)cc2)cc1 (repeat unit) | 225.00
2 | *C#CC#Cc1cc(C(C)(C)C)cc2c3cc(C(C)(C)C)cc(*)c3n(CCCCCCCCCCCCCCCC)c12 (repeat unit) | 67.00
3 | *C(=O)c1ccc(C(=O)N(*)c2ccccc2)cc1 (repeat unit) | 179.00
4 | *CC(*)C(=O)OCCCCCCn1c2ccccc2c2ccccc21 (repeat unit) | 48.00
5 | *CC(*)C(=O)OCCCCOc1ccc(-c2ccc(C#N)cc2)cc1 (repeat unit) | 30.00
6 | *CC(*)C(=O)OCCCOC (repeat unit) | -66.50
7 | *CC(*)C(=O)OCCCOc1ccc(C(=O)OCCCC(F)(F)C(F)(F)C(F)(F)C(F)(F)C(F)(F)C(F)(F)F)cc1 (repeat unit) | 17.00
8 | *CC(*)C(=O)OCCCSCC (repeat unit) | -76.00
9 | *CC(*)C(=O)OCCN(CC)c1ccc(/N=N/c2ccc([N+](=O)[O-])cc2)cc1 (repeat unit) | 102.00
10 | *CC(*)C(=O)OCCN(CC)c1ccc(/N=N/c2ccc([N+](=O)[O-])cc2Cl)cc1 (repeat unit) | 87.00
11 | *CC(*)C(=O)OCCOC(F)(F)C(F)F (repeat unit) | -22.00
12 | *CC(*)C(=O)OCCOCC(F)(F)F (repeat unit) | -38.00
13 | *CC(*)C(=O)OCCOc1ccc(C(=O)Oc2ccc(OC)cc2)cc1 (repeat unit) | 70.00
14 | *CC(*)C(=O)OCCSCC#N (repeat unit) | -24.00
15 | *CC(*)C(=O)OCCSCCC#N (repeat unit) | -50.00
16 | *CC(*)C(=O)OCCSCCCC#N (repeat unit) | -58.00
17 | *CC(*)C(=O)OCc1ccccc1 (repeat unit) | 9.2
18 | *CC(*)C(=O)Oc1ccc(-c2ccccc2)cc1 (repeat unit) | 110.00
19 | *CC(*)C(=O)Oc1ccc(/N=N/c2ccc(OC)cc2)cc1 (repeat unit) | 140.00
20 | *CC(*)C(=O)Oc1ccc(C#N)cc1 (repeat unit) | 92.00
21 | *CC(*)C(=O)Oc1ccc(C(=O)Oc2ccc(OC(=O)c3ccc(OCCCC)cc3)cc2)cc1 (repeat unit) | 47.00
22 | *CC(*)C(=O)Oc1ccc(C(=O)Oc2ccc(OC(=O)c3ccc(OCCCCC)cc3)cc2)cc1 (repeat unit) | 48.00
23 | *CC(*)C(=O)Oc1ccc(C(=O)c2ccc(Cl)cc2)cc1 (repeat unit) | 78.00

Row | SMILES | glass transition temperature [°C]
24 | *CC(*)C(=O)Oc1ccc(C(C)(C)C)cc1 (repeat unit) | 71.00
25 | *CC(*)C(=O)Oc1ccc(OC)cc1 (repeat unit) | 50.50
26 | *CC(*)C(=O)Oc1cccc(C(=O)OCC)c1 (repeat unit) | 24.00
27 | *CC(*)C(=O)Oc1cccc(C)c1 (repeat unit) | 24.50
28 | *CC(*)C(=O)Oc1cccc2ccccc12 (repeat unit) | 85.00
29 | *CC(*)C(=O)c1ccc(Br)c(OC)c1 (repeat unit) | 44.00
30 | *CC(*)C(=O)c1ccc(CCC)cc1 (repeat unit) | 44.00
31 | *CC(*)C(C)=O (repeat unit) | 115.00
32 | *CC(*)C1CCCCC1C (repeat unit) | 186.00
33 | *CC(*)CC1CCCC1 (repeat unit) | 60.00
34 | *CC(*)CCCCCCCCCCCC (repeat unit) | 10.00
35 | *CC(*)CCCCCCCCCI (repeat unit) | -6.00
36 | *CC(*)CCI (repeat unit) | 70.00
37 | *CC(*)CN (repeat unit) | 190.00
38 | *CC(*)CNc1ccc([N+](=O)[O-])cc1[N+](=O)[O-] (repeat unit) | 160.00
39 | *CC(*)NC=O (repeat unit) | 150.00
40 | *CC(*)OC(=O)C(C)(C(C)C)C(C)C (repeat unit) | 120.00
41 | *CC(*)OC(=O)C(Cl)(Cl)Cl (repeat unit) | 59.00
42 | *CC(*)OC(=O)CC1CCCC1 (repeat unit) | -3.00
43 | *CC(*)OC(=O)CCCC(=O)c1ccccc1 (repeat unit) | 45.00
44 | *CC(*)OC(=O)CCl (repeat unit) | 20.5
45 | *CC(*)OC(=O)OC([2H])([2H])[2H] (repeat unit) | 55.00
46 | *CC(*)OC(=O)OCCC(F)(F)C(F)(F)C(F)(F)C(F)(F)C(F)(F)C(F)(F)F (repeat unit) | 37.00

Row | SMILES | glass transition temperature [°C]
47 | *CC(*)OC(=O)c1ccc(Br)cc1 (repeat unit) | 85.50
48 | *CC(*)OC(=O)c1ccc(C(C)(C)C)cc1 (repeat unit) | 121.00
49 | *CC(*)OC(=O)c1ccc(C)cc1 (repeat unit) | 73.50
50 | *CC(*)OC(=O)c1ccc(CC)cc1 (repeat unit) | 57.00
51 | *CC(*)OC(=O)c1ccc(Cl)cc1 (repeat unit) | 70.2
52 | *CC(*)OC(=O)c1ccc(OC(=O)CCC)cc1 (repeat unit) | 61.00
53 | *CC(*)OC(=O)c1ccc(OC(C)=O)cc1 (repeat unit) | 76.00
54 | *CC(*)OC(=O)c1cccc(OC)c1 (repeat unit) | 44.00
55 | *CC(*)OC(=O)c1ccccc1C (repeat unit) | 42.50
56 | *CC(*)OC(=O)c1ccccc1OC (repeat unit) | 65.00
57 | *CC(*)OC(=O)c1ccccc1OC(C)=O (repeat unit) | 59.50
58 | *CC(*)OC(=O)c1ccncc1 (repeat unit) | 98.50
59 | *CC(*)OC(=O)c1nn(C(C)=O)c2ccccc12 (repeat unit) | 150.00
60 | *CC(*)OC(F)(C(F)(F)F)C(F)(F)F (repeat unit) | 65.00
61 | *CC(*)OCC(C)(C)CC (repeat unit) | 9.00
62 | *CC(*)OCC(CC)CCCC (repeat unit) | -66.00
63 | *CC(*)OCCCCCCCCCCCOc1ccc(C(=O)Oc2ccc(C#N)cc2)cc1 (repeat unit) | 37.00
64 | *CC(*)OCCCCCCCCCCCOc1ccc(C(=O)Oc2ccc(OCC)cc2)cc1 (repeat unit) | 37.00
65 | *CC(*)OCCOc1ccc(/C=C(\C#N)C(=O)OC)cc1 (repeat unit) | 47.00
66 | *CC(*)O[N+](=O)[O-] (repeat unit) | 37.50
67 | *CC(*)P(=O)(c1ccccc1)c1ccccc1 (repeat unit) | 127.50
68 | *CC(*)S(=O)(=O)c1ccccc1 (repeat unit) | 128.00
69 | *CC(*)[Si](C)(C)C (repeat unit) | 137.00

Row | SMILES | glass transition temperature [°C]
70 | *CC(*)c1c(F)c(F)c(C(F)(F)F)c(F)c1F (repeat unit) | 112.00
71 | *CC(*)c1c(F)c(F)c(OCC(F)(F)C(F)(F)C(F)(F)C(F)(F)C(F)(F)C(F)(F)C(F)(F)F)c(F)c1F (repeat unit) | 21.00
72 | *CC(*)c1c(F)c(F)c(OCC(F)(F)C(F)(F)F)c(F)c1F (repeat unit) | 61.00
73 | *CC(*)c1c([2H])c([2H])c([2H])c([2H])c1[2H] (repeat unit) | 100.00
74 | *CC(*)c1cc(-c2ccc(C(=O)OC3CC(C)CCC3C(C)C)cc2)ccc1-c1ccc(C(=O)OC2CC(C)CCC2C(C)C)cc1 (repeat unit) | 217.50
75 | *CC(*)c1cc(Br)ccc1OCCC (repeat unit) | 54.00
76 | *CC(*)c1cc(Br)ccc1OCCC(C)C (repeat unit) | 37.00
77 | *CC(*)c1cc(C(=O)OCC)ccc1-c1ccc(OCCCCCCCC)cc1 (repeat unit) | 95.00
78 | *CC(*)c1cc(C)c(C)cc1C (repeat unit) | 104.00
79 | *CC(*)c1cc(OC)c(O)c(OC)c1 (repeat unit) | 147.00
80 | *CC(*)c1ccc(-c2ccc3c(c2)C(CCCCCC)(CCCCCC)c2cc(-c4ccc5c(c4)C(CCCCCC)(CCCCCC)c4ccccc4-5)ccc2-3)cc1 (repeat unit) | 78.60
81 | *CC(*)c1ccc(-c2ccc3c(c2)C(CCCCCC)(CCCCCC)c2ccccc2-3)cc1 (repeat unit) | 81.2
82 | *CC(*)c1ccc(B(O[Si](C)(C)C)O[Si](C)(C)C)cc1 (repeat unit) | 84.00
83 | *CC(*)c1ccc(B(Oc2ccc(B3OC(C)(C)C(C)(C)O3)c3cccnc23)c2ccc(C(C)(C)C)cc2)cc1 (repeat unit) | 275.00
84 | *CC(*)c1ccc(C#N)cc1 (repeat unit) | 180.00
85 | *CC(*)c1ccc(C(=O)CCC)cc1 (repeat unit) | 74.00
86 | *CCCCCCN(CC(F)(F)C(F)(F)F)C(=O)C(F)(F)C(F)(F)C(F)(F)C(=O)N(*)CC(F)(F)C(F)(F)F (repeat unit) | 174.00
87 | *CCCCCCOc1ccc(C(=O)N(C(=O)c2ccc(O*)cc2)c2cccc3ccccc23)cc1 (repeat unit) | 56.00
88 | *CCCCCCOc1ccc(C(=O)N(C(=O)c2ccc(O*)cc2)c2ccccc2)cc1 (repeat unit) | 100.00
89 | *COc1ccc(C(=C(Cl)Cl)c2ccc(O*)cc2)cc1 (repeat unit) | 108.00
90 | *O[Si](C)(C)C#C[Si](C)(C)C#C[Si](C)(C)C#C[Si](C)(C)C#C[Si](*)(C)C (repeat unit) | -23.00
91 | *c1ccc(C#Cc2cc(OCCCCCCCC)c(C#Cc3ccc(-c4nnc(*)o4)cc3)cc2OCCCCCCCC)cc1 (repeat unit) | 130.00
